Earlier results in patent publication US12090222B2, “Method for dyeing keratin material, comprising the use of an organosilicon compound, two dyeing compounds and a post-treatment agent” (Henkel AG & Co. KGaA, priority 2020, dated 2024).

Conditions: 25° C.

Row | Molecule | solubility in water (in words) | solubility in water
1 | O=C([O-])C1=NN(c2ccc(S(=O)(=O)[O-])cc2)C(=O)C1N=Nc1ccc(S(=O)(=O)[O-])cc1.[Na+].[Na+].[Na+] (centres unmarked) [Acid Yellow 23, trisodium salt of 4,5-dihydro-5-oxo-1-(4-sulfophenyl)-4-((4-sulfophenyl)azo)-1H-pyrazole-3-carboxylic acid] | highly soluble | 
2 | O=C([O-])c1c(Cl)c(Cl)c(Cl)c(Cl)c1-c1c2c(Br)cc(=O)c(Br)c-2oc2c(Br)c(O)cc(Br)c12.O=C([O-])c1c(Cl)c(Cl)c(Cl)c(Cl)c1-c1c2c(Br)cc(=O)c(Br)c-2oc2c(Br)c(O)cc(Br)c12.[Na+].[Na+] [Acid Red 92, disodium salt of 3,4,5,6-tetrachloro-2-(1,4,5,8-tetrabromo-6-hydroxy-3-oxoxanthen-9-yl)benzoic acid] |  | greater than 10 g/L
3 | mixture of the sodium salts of mono- and disulfonic acids of 2-(2-quinolyl)-1H-indene-1,3(2H)-dione [Acid Yellow 3] |  | about 20 g/L
4 | Nc1cc(S(=O)(=O)[O-])cc2cc(S(=O)(=O)[O-])c(N=Nc3ccccc3)c(O)c12.[Na+].[Na+] [Acid Red 33, disodium salt of 5-amino-4-hydroxy-3-(phenylazo)-naphthalene-2,7-disulphonate] |  | about 2.5 g/L
5 | O=S(=O)([O-])c1ccc(N=Nc2c(O)ccc3ccccc23)cc1.[Na+] [Acid Orange 7, sodium salt of 4-[(2-hydroxy-1-naphthyl)azo]benzene sulphonate] |  | more than 7 g/L
